# Target: native MNK-2B (Homo sapiens, UniProt Q9HBH9)
# Test: NMR screening (Saturation Transfer Difference) for compounds binding Mnk2b
# Conditions: screen: 1 μM native MNK-2B, 200 μM compound mixture; confirmation: 2 μM native Mnk2B, 250 μM individual compound; pH 7.5, 20° C.
# Text: A diversity library consisting of relatively small and highly water-soluble compounds was used to screen native MNK-2B for binders by NMR (Nuclear Magnetic Resonance). The NMR tecinique used to identify binders was Saturation Transfer Difference (STD): the protein ^1H resonances are saturated by means of a weak radio-frequency field applied to a narrow spectral region. The saturation is transferred by spin diffusion to the rest of the protein and subsequently further to compounds that bind to the protein attenuating their signals in the NMR spectrum. The spectrum is then subtracted from a spectrum obtained at non-saturating conditions to obtain an STD spectrum showing only the signals from compounds interacting with the protein. In practice the pulse sequence is written in such a way that the subtraction is done automatically in every other scan, i.e. the individual spectra are never observed (Mayer & Meyer, Angew. Chem. Int. Ed., 38, 1784-1788, 1999).
# The compounds in the library are divided into mixtures consisting of 4-8 compounds each. Each sample contained 1 μM native MNK-2B, 200 μM compound mixture, 50 mM sodium phosphate buffer, 1 mM DTT, pH 7.5 in ca 98% D2O/2% H2O. […] The volume was 600 μl and standard NMR tubes were used. […] A reference ^1H 1D experiment and an STD experiment were recorded on each sample. […]
# native MNK-2B, sequence (Q9HBH9 1-414 isoform Q9HBH9-2): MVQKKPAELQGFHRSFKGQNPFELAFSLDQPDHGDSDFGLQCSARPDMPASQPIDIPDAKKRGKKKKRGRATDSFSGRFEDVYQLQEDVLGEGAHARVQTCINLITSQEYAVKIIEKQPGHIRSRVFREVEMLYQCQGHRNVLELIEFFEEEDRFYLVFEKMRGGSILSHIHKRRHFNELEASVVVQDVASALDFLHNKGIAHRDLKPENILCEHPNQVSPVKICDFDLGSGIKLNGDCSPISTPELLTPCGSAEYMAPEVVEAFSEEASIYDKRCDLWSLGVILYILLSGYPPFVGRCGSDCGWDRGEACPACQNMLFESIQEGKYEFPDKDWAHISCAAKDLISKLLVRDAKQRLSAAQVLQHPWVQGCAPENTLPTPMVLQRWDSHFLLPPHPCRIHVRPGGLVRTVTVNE
structure (smiles),measurement,value
COC(=O)c1ccc(O)cc1 [4-hydroxy-benzoic acid methyl ester],binding to Mnk2b by STD NMR (identified as ligand),identified as Mnk2b ligands

# — US20030022241A1, “Methods” (priority 2001, published 2003)
